Measured values from patent US4075341A, “2-Substituted phenyl-5-triazols [5,1-a] isoquinoline compounds” (Gruppo Lepetit S.p.A., priority 1975, dated 1978).

Tested on: carrageenin induced edema
Test: carrageenin test in rats (anti-inflammatory activity)
Type: in vivo
Details: Rattus norvegicus, po; 50 mg./kg. p.o.
Excerpt: The anti-inflammatory activity of some inventive compounds was evidenced by means of the carrageenin test in rats.

Q: Which inhibition at 50 mg/kg does the source give for `Sc1nc2n(n1)CCc1ccccc1-2` [Example 38, 2-Sulfhydryl-5,6-dihydro-s-triazolo[5,1-a]isoquinoline] here?
A: ~35%
